The assay has as its target EHMT2 (Euchromatic histone-lysine N-methyltransferase 2) (Homo sapiens (Human), UniProt Q96KQ7). The experiment in a line: EHMT2 enzyme inhibition, LANCE TR-FRET. The settings on record: histone H3 peptide, 1 hour at room temperature. Type of assay: biochemical. The procedure: In order to analyze the enzyme inhibitory efficacy of the compounds of Examples 1 to 89, EHMT2 (Euchromatic histone-lysine N-methyltransferase 2) enzyme activity was measured using the LANCE TR-FRET™ analysis method of Perkin Elmer. When the EHMT2 enzyme is activated, the 9th lysine residue of the biotinylated-histone peptide is methylated and the EU-conjugated antibody is combined to the methylated histone peptide. Then, when the complex is irradiated with light of excitation wavelength, the complex emits light having a wavelength of 665 nm through FRET phenomenon. Accordingly, fluorescence was measured, and IC50 values were calculated through a software to evaluate the EHMT2 enzyme activity inhibitory effect of the compounds of Examples 1 to 89.
Specific experimental methods are as follows. First, the compounds of Examples 1 to 89 of 1 nM to 100 μM (4× conc.) were put into a 384 well plate (25 μL/well), and 2 μM EEMT2/G9a enzyme (4× conc.) was put into the 384 well plate (25 μL/well). The plate was then centrifuged at 1,500 rpm for 5 seconds after sealing the plate with plate sealing foil. After incubating the EHMT2/G9a enzyme, SAM, and the compounds of Examples above at room temperature for 10 minutes, 2 μM histone H3 peptide (4× conc.) was added to the 384-well plate (25 μL/well). After sealing the plate with plate sealing foil and centrifuging at 1,500 rpm for 5 seconds, an enzymatic reaction was performed at room temperature for 1 hour. Upon completion of the enzyme reaction, 5 μL each of 200 nM Ulight™-Streptavidin (4× conc.) and 8 nM Eu-antibody (4× conc.) was added to each well of the plate. The plate was sealed with plate sealing foil, centrifuged at 1,500 rpm for 5 seconds and reacted at room temperature for 1 hour. The signal values were measured with Envision (Ex 320 nm, Em 665 nm), and all background values obtained by reacting without enzyme were deleted from the measured raw data values. Then, the EHMT2 enzyme activity inhibitory effect of the compounds of Examples 1 to 89 was converted into % values, and compared with the EHMT2 activity when treated with 4% DMSO vehicle (=0 nM compound) as 100%.
(In general: Time-resolved FRET reads energy transfer from a long-lived donor to a nearby acceptor.)
Chain of EHMT2 (Euchromatic histone-lysine N-methyltransferase 2) (Q96KQ7 whole entry): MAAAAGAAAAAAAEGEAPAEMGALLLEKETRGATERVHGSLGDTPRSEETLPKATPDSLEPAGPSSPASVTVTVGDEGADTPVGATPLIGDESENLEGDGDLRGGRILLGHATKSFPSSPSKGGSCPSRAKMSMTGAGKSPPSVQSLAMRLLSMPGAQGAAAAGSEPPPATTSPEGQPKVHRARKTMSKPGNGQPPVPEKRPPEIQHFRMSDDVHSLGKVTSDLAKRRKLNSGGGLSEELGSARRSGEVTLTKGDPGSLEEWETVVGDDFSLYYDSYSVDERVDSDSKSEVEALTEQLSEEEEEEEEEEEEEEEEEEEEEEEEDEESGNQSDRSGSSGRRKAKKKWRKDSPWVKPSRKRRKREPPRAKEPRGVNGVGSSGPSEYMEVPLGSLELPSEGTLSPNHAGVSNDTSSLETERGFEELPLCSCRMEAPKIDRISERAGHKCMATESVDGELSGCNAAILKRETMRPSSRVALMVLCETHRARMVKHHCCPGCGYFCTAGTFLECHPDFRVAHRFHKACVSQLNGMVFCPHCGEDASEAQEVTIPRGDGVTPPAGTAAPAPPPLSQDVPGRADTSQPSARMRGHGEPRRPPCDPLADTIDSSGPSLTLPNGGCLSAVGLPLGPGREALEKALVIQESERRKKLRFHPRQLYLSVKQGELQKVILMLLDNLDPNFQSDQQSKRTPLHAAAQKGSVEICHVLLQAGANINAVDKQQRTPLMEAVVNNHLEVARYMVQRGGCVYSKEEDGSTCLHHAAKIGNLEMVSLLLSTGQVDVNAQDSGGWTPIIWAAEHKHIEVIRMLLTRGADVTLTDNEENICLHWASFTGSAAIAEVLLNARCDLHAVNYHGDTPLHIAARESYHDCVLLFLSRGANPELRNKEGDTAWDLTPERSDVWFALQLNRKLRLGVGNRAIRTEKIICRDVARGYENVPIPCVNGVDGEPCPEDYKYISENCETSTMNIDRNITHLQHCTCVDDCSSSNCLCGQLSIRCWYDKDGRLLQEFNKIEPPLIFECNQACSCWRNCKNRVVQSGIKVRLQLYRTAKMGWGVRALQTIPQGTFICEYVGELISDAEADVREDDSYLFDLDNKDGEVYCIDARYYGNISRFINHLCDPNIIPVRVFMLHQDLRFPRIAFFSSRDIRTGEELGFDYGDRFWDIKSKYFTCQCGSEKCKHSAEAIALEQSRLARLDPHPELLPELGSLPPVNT
Broadly, the IC50 is the midpoint of a concentration-inhibition curve. A lower IC50 goes with inhibition by little substance. Regarding `COc1cc2c(NCC3CCN(C)CC3)nc(N3CCCCC3)nc2cc1C#CCCN(C)C` [Example 31, 7-(4-(dimethylamino)-1-butyne-1-yl)-6-methoxy-N-((1-methylpiperidine-4-yl)methyl)-2-(piperidine-1-yl)quinazoline-4-amine], the concentration for half-maximal inhibition (IC50) was 1 to 10 µM.

Turning to `COc1cc2c(NCc3ccncc3)nc(N3CCCCC3)nc2cc1C#CCCN(C)C` [Example 32, 7-(4-(dimethylamino)-1-butyne-1-yl)-6-methoxy-2-(piperidine-1-yl)-N-(pyridine-4-ylmethyl)quinazoline-4-amine], the 50% inhibitory concentration (IC50) lay in the range of 10 to 100 µM. To `COc1cc2c(NC3CCN(C(C)C)CC3)nc(N3CCCCC3)nc2cc1C#CCCN1CC(F)C1` [Example 33, 7-(4-(3-fluoroazetidine-1-yl)-1-butyne-1-yl)-N-(1-isopropylpiperidine-4-yl)-6-methoxy-2-(piperidine-1-yl)quinazoline-4-amine] belongs 10 to 100 µM; to `COc1cc2c(NCCc3ccncc3)nc(N3CCCCC3)nc2cc1C#CCCN(C)C` [Example 34], 10 to 100 µM. `COc1cc2c(NC3CCN(C(C)C)CC3)nc(N3CCC(F)(F)CC3)nc2cc1C#CCCN1CCCC1` [Example 35, 2-(4,4-difluoropiperidine-1-yl)-N-(1-isopropylpiperidine-4-yl)-6-methoxy-7-(4-(pyrrolidine-1-yl)-1-butyne-1-yl)quinazoline-4-amine]: the IC50 lay in the range of 1 to 10 µM. With `COc1cc2c(NC3CCN(C(C)C)CC3)nc(N3CCCCCC3)nc2cc1C#CCCN1CCCC1` [Example 36], the half-inhibitory concentration (IC50) was < 0.1 µM. To `COc1cc2c(NC3CCN(C(C)C)CC3)nc(N3CCCCCC3)nc2cc1C#CCCN1CCCCC1` [Example 37, 2-(azepane-1-yl)-N-(1-isopropylpiperidine-4-yl)-6-methoxy-7-(4-(piperidine-1-yl)-1-butyne-1-yl)quinazoline-4-amine] belongs 0.1 to 1 µM; to `COc1cc2c(NC3CCN(C(C)C)CC3)nc(N3CCN(C)CC3)nc2cc1C#CCCN1CCCC1` [Example 38, N-(1-isopropylpiperidine-4-yl)-6-methoxy-2-(4-methylpiperazine-1-yl)-7-(4-(pyrrolidine-1-yl)-1-butyne-1-yl)quinazoline-4-amine], 0.1 to 1 µM; to `COc1cc2c(NC3CCN(C(C)C)CC3)nc(N3CCN(C)CC3)nc2cc1C#CCCN1CCCCC1` [Example 39, N-(1-Disopropylpiperidine-4-yl)-6-methoxy-2-(4-methylpiperazine-1-yl)-7-(4-(piperidine-1-yl)-1-butyne-1-yl)quinazoline-4-amine], 1 to 10 µM. In turn, `COc1cc2c(NC3CCN(C(C)C)CC3)nc(N3CCC4(CCCC4)C3)nc2cc1C#CCCN1CCCC1` [Example 40, N-(1-isopropylpiperidine-4-yl)-6-methoxy-7-(4-(pyrrolidine-1-yl)-1-butyne-1-yl)-2-(2-azaspiro[4.4]nonane-2-yl)quinazoline-4-amine] showed an IC50 of 0.1 to 1 µM. The compound `COc1cc2c(NC3CCN(C(C)C)CC3)nc(N3CCC4(CCCC4)C3)nc2cc1C#CCCN1CCCCC1` [Example 41, N-(1-isopropylpiperidine-4-yl)-6-methoxy-7-(4-(piperidine-1-yl)-1-butyne-1-yl)-2-(2-azaspiro[4.4]nonane-2-yl)quinazoline-4-amine] displayed an IC50 of 1 to 10 µM.

As to `COc1cc2c(NC3CCN(C(C)C)CC3)nc(N3CCCC3)nc2cc1C#CCCN1CCCCC1` [Example 43, N-(1-isopropylpiperidine-4-yl)-6-methoxy-7-(4-(piperidine-1-yl)-1-butyne-1-yl)-2-(pyrrolidine-1-yl)quinazoline-4-amine], the IC50 is < 0.1 µM. To `COc1cc2c(NC3CCN(C(C)C)CC3)nc(N(C)C)nc2cc1C#CCCN1CCCCC1` [Example 44, N-(1-isopropylpiperidine-4-yl)-6-methoxy-N2,N2-dimethyl-7-(4-(piperidine-1-yl)-1-butyne-1-yl)quinazoline-2,4-diamine] belongs < 0.1 µM; to `COc1cc2c(NC3CCN(C(C)C)CC3)nc(N3CCCN(C)CC3)nc2cc1C#CCCN1CCCCC1` [Example 45, N-(1-isopropylpiperidine-4-yl)-6-methoxy-2-(4-methyl1,4-diazepane-1-yl)-7-(4-(piperidine-1-yl)-1-butyne-1-yl)quinazoline-4-amine], < 0.1 µM.

In the case of `COc1cc2c(NC3CCN(C(C)C)CC3)nc(N3C[C@@H]4C[C@@H]4[C@@H]3CO)nc2cc1C#CCCN1CCCC1` [Example 46, ((1S,2R,5R)-3-(4-((1-isopropylpiperidine-4-yl)amino)-6-methoxy-7-(4-(pyrrolidine-1-yl)-1-butyne-1-yl)quinazoline-2-yl)-3-azabicyclo[3.1.0]hexane-2-yl)methanol], the concentration for half-maximal inhibition (IC50) was < 0.1 µM. In the case of `COc1cc2c(NC3CCN(C(C)C)CC3)nc(N3C[C@@H]4C[C@@H]4[C@@H]3CO)nc2cc1C#CCCN1CCCCC1` [Example 47, ((1S,2R,5R)-3-(4-((1-isopropylpiperidine-4-yl)amino)-6-methoxy-7-(4-(piperidine-1-yl)-1-butyne-1-yl)quinazoline-2-yl)-3-azabicyclo[3.1.0]hexane-2-yl)methanol] it was < 0.1 µM. To `COc1cc2c(NC3CCN(C(C)C)CC3)nc(N3CCCN(C)CC3)nc2cc1C#CCCN1CCCC1` [Example 48, N-(1-isopropylpiperidine-4-yl)-6-methoxy-2-(4-methyl-1,4-diazepane-1-yl)-7-(4-(pyrrolidine-1-yl)-1-butyne-1-yl)quinazoline-4-amine] belongs < 0.1 µM; to `CCN1CCC(Nc2nc(N3CCCCC3)nc3cc(C#CCCN(C)C)c(OC)cc23)CC1` [Example 50, 7-(4-(dimethylamino)-1-butyne-1-yl)-N-(1-ethylpiperidine-4-yl)-6-methoxy-2-(piperidine-1-yl)quinazoline-4-amine], < 0.1 µM. On to `CCN1CCC(Nc2nc(N3CCCCC3)nc3cc(C#CCCN4CCCC4)c(OC)cc23)CC1` [Example 51, N-(1-ethylpiperidine-4-yl)-6-methoxy-2-(piperidine-1-yl)-7-(4-(pyrrolidine-1-yl)-1-butyne-1-yl)quinazoline-4-amine], for which the IC50 is < 0.1 µM. In the case of `COc1cc2c(NC3CCN(C4CC4)CC3)nc(N3CCCCC3)nc2cc1C#CCCN1CCCC1` [Example 53, N-(1-cyclopropylpiperidine-4-yl)-6-methoxy-2-(piperidine-1-yl)-7-(4-(pyrrolidine-1-yl)-1-butyne-1-yl)quinazoline-4-amine] it was < 0.1 µM; in that of `COc1cc2c(NC3CCN(C4CC4)CC3)nc(N3CCCC3)nc2cc1C#CCCN1CCCC1` [Example 54, N-(1-cyclopropylpiperidine-4-yl)-6-methoxy-2-(pyrrolidine-1-yl)-7-(4-(pyrrolidine-1-yl)-1-butyne-1-yl)quinazoline-4-amine], < 0.1 µM; in that of `COc1cc2c(NC3CCN(C(C)C)CC3)nc(N3CC[C@H](F)C3)nc2cc1C#CCCN1CCCC1` [Example 57, (S)-2-(3-fluoropyrrolidine-1-yl)-N-(1-isopropylpiperidine-4-yl)-6-methoxy-7-(4-(pyrrolidine-1-yl)-1-butyne-1-yl)quinazoline-4-amine], < 0.1 µM. In the case of `COc1cc2c(NC3CCN(C(C)C)CC3)nc(N3CC(F)C3)nc2cc1C#CCCN1CCCC1` [Example 59, 2-(3-fluoroazetidine-1-yl)-N-(1-isopropylpiperidine-4-yl)-6-methoxy-7-(4-(pyrrolidine-1-yl)-1-butyne-1-yl)quinazoline-4-amine] it was < 0.1 µM; in that of `COc1cc2c(NCCN(C)C)nc(N(C)C)nc2cc1C#CCCN1CCCC1` [Example 61, N4-(2-(dimethylamino)ethyl)-6-methoxy-N2,N2-dimethyl-7-(4-(pyrrolidine-1-yl)-1-butyne-1-yl)quinazoline-2,4-diamine], < 0.1 µM; in that of `COc1cc2c(NCCN(C)C)nc(N3CCCN(C)CC3)nc2cc1C#CCCN1CCCC1` [Example 62, N1-(6-methoxy-2-(4-methyl-1,4-diazepane-1-yl)-7-(4-(pyrrolidine-1-yl)-1-butyne-1-yl)quinazoline-4-yl)-N2,N2-dimethylethane-1,2-diamine], < 0.1 µM. To `CCN1CCC(Nc2nc(N(C)C)nc3cc(C#CCCN4CCCC4)c(OC)cc23)CC1` [Example 63, N4-(1-ethylpiperidine-4-yl)-6-methoxy-N2,N2-dimethyl-7-(4-(-pyrrolidine-1-yl)-1-butyne-1-yl)quinazoline-2,4-diamine] belongs < 0.1 µM. As for `CCN1CCC(Nc2nc(N3CCCC3)nc3cc(C#CCCN4CCCC4)c(OC)cc23)CC1` [Example 64, N-(1-ethylpiperidine-4-yl)-6-methoxy-2-(pyrrolidine-1-yl)-7-(4-(pyrrolidine-1-yl)-1-butyne-1-yl)quinazoline-4-amine], the concentration for half-maximal inhibition (IC50) is < 0.1 µM.
